Drawing on patent US20240092784A1, “CONDENSED HETEROCYCLIC COMPOUND” (NISSAN CHEMICAL CORPORATION, priority 2020, published 2024), this text covers IC50 for 25 compounds.

Molecules are shown by their SMILES.

Sequence of human SPR (P35270 whole entry): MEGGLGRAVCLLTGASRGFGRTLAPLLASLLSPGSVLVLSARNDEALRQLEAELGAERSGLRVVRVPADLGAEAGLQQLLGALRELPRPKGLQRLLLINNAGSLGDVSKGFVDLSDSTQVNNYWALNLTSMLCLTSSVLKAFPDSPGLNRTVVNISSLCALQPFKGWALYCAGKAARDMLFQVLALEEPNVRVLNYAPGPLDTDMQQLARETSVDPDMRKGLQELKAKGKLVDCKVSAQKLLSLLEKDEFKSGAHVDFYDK

The first test concerns the target human SPR (Homo sapiens (Human), UniProt P35270). In words: Evaluation Example 2: Measurement of human SPR inhibitory activity (seven concentrations, sepiapterin absorbance at 420 nm). The format is biochemical. To be noted: Evaluation Example 2, seven concentrations 0.14 nM to 100 nM, 240 minutes at room temperature, read-out: IC50. The gist of the method:
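His-tagged full-length human SPR (1-261) was expressed in E. coli and the tag removed. Enzyme at 150 ng/mL in 100 mM Tris-HCl pH 7.5/0.01% BSA was mixed with compound (0.14–100 nM, seven points), 120 μM sepiapterin and 160 μM NADPH, both as added-solution concentrations. After 240 min at room temperature, remaining sepiapterin was read at 420 nm to give percent inhibition.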
Turning to `CC(C)Cn1c(=O)c(C(=O)NC2CC2)c(O)n2ncc(C(=O)NCc3ncccn3)c12` [Synthesis Example 231, N6-Cyclopropyl-7-hydroxy-4-isobutyl-5-oxo-N3-(pyrimidin-2-ylmethyl)-4,5-dihydropyrazolo[1,5-a]pyrimidine-3,6-dicarboxamide], the IC50 came out at 0.65 nM.
For the compound `COc1ncccc1-c1cc2n(CC(C)(C)C)c(=O)c(C(=O)NC3CC3)c(O)n2n1` [Synthesis Example 281, N-Cyclopropyl-7-hydroxy-2-(2-methoxypyridine-3-yl)-4-neopentyl-5-oxo-4,5-dihydropyrazolo[1,5-a]pyrimidine-6-carboxamide], the IC50 came out at 3.08 nM.
As for `Cc1cc(Nc2cc3n(CC(C)(C)C)c(=O)c(C(=O)NC4CC4)c(O)n3n2)ncn1` [Synthesis Example 339, N-Cyclopropyl-7-hydroxy-2-((6-methylpyrimidin-4-yl)amino)-4-neopentyl-5-oxo-4,5-dihydropyrazolo[1,5-a]pyrimidine-6-carboxamide], the IC50 was 4.57 nM.
As to `Cc1nn2c(O)c(C(=O)NC3CC3)c(=O)n(CC(C)C)c2c1/C=C/C(=O)N1CCC[C@H]1c1ccccc1` [Synthesis Example 674, (S,E)-N-Cyclopropyl-7-hydroxy-4-isobutyl-2-methyl-5-oxo-3-(3-oxo-3-(2-phenylpyrrolidin-1-yl)prop-1-en-1-yl)-4,5-dihydropyrazolo[1,5-a]pyrimidine-6-carboxamide], the IC50 came out at 1.36 nM.
The same measure, in the same setting: then `Cc1nn2c(O)c(C(=O)NC3CC3)c(=O)n(CC(C)C)c2c1/C=C/C(=O)N1C2CCC1CC(F)(F)C2` [Synthesis Example 650, (E)-N-Cyclopropyl-3-(3-(3,3-difluoro-8-azabicyclo[3.2.1]octan-8-yl)-3-oxoprop-1-en-1-yl)-7-hydroxy-4-isobutyl-2-methyl-5-oxo-4,5-dihydropyrazolo[1,5-a]pyrimidine-6-carboxamide], with 0.95 nM.
Consider `CC(C)Cn1c(=O)c(C(=O)NC2CC2)c(O)n2ncc(CC(=O)N3CCOCC3)c12` [Synthesis Example 264, N-Cyclopropyl-7-hydroxy-4-isobutyl-3-(2-morpholino-2-oxoethyl)-5-oxo-4,5-dihydropyrazolo[1,5-a]pyrimidine-6-carboxamide], for which the IC50 was determined as 0.95 nM.
As to `CC(C)Cn1c(=O)c(C(=O)NC2CC2)c(O)n2nc(C(N)=O)c(/C=C/C(=O)N3CCOCC3)c12` [compound 450, (E)-N6-Cyclopropyl-7-hydroxy-4-isobutyl-3-(3-morpholino-3-oxoprop-1-en-1-yl)-5-oxo-4,5-dihydropyrazolo[1,5-a]pyrimidine-2,6-dicarboxamide], the IC50 was 0.6 nM.
Regarding `Cc1nn2c(O)c(C(=O)NC3CC3)c(=O)n(CC(C)C)c2c1/C=C/C(=O)N1CCOC[C@@H]1c1ccccc1` [Synthesis Example 643, (S,E)-N-Cyclopropyl-7-hydroxy-4-isobutyl-2-methyl-5-oxo-3-(3-oxo-3-(3-phenylmorpholino)prop-1-en-1-yl)-4,5-dihydropyrazolo[1,5-a]pyrimidine-6-carboxamide], the IC50 is 1.37 nM.
On the same count and under the same terms, under `CC(C)Cn1c(=O)c(C(=O)NC2CC2)c(O)n2ncc(/C=C/C(=O)N3CCCCCO3)c12` [compound 543, (E)-3-(3-(1,2-Oxazepan-2-yl)-3-oxoprop-1-en-1-yl)-N-cyclopropyl-7-hydroxy-4-isobutyl-5-oxo-4,5-dihydropyrazolo[1,5-a]pyrimidine-6-carboxamide] stands 0.97 nM; under `CC(C)Cn1c(=O)c(C(=O)NC2CC2)c(O)n2ncc(/C=C/C3CCN(CC(F)(F)F)CC3)c12` [Synthesis Example 249, (E)-N-Cyclopropyl-7-hydroxy-4-isobutyl-5-oxo-3-(2-(1-(2,2,2-trifluoroethyl)piperidin-4-yl)vinyl)-4,5-dihydropyrazolo[1,5-a]pyrimidine-6-carboxamide], 2.69 nM; under `CC(C)Cn1c(=O)c(C(=O)NC2CC2)c(O)n2ncc(/C=C/C(=O)N(C3CC3)C3CC3)c12` [compound 515, (E)-N-Cyclopropyl-3-(3-(dicyclopropylamino)-3-oxoprop-1-en-1-yl)-7-hydroxy-4-isobutyl-5-oxo-4,5-dihydropyrazolo[1,5-a]pyrimidine-6-carboxamide], 0.84 nM.
Same read-out and setting: then `CC1(Cn2c(=O)c(C(=O)NC3CC3)c(O)n3ncc(/C=C/C(=O)N4CCOCC4)c23)CC1` [Synthesis Example 366, (E)-N-Cyclopropyl-7-hydroxy-4-((1-methylcyclopropyl)methyl)-3-(3-morpholino-3-oxoprop-1-en-1-yl)-5-oxo-4,5-dihydropyrazolo[1,5-a]pyrimidine-6-carboxamide], with 0.75 nM; and `CC(C)(C)Cn1c(=O)c(C(=O)NC2CC2)c(O)n2nc(-c3[nH]ncc3C(=O)N3CCOCC3)cc12` [Synthesis Example 311, N-Cyclopropyl-7-hydroxy-2-(4-(morpholine-4-carbonyl)-1H-pyrazol-5-yl)-4-neopentyl-5-oxo-4,5-dihydropyrazolo[1,5-a]pyrimidine-6-carboxamide], with 1.21 nM.
`CC(C)(C)Cn1c(=O)c(C(=O)NC2CC2)c(O)n2nc(Nc3cnc(C(=O)NCC(F)(F)F)cn3)cc12` [Synthesis Example 352, N-Cyclopropyl-7-hydroxy-4-neopentyl-5-oxo-2-((5-((2,2,2-trifluoroethyl)carbamoyl)pyrazin-2-yl)amino)-4,5-dihydropyrazolo[1,5-a]pyrimidine-6-carboxamide]: the IC50 came out at 1.04 nM.
As for `Cc1nn2c(O)c(C(=O)NC3CC3)c(=O)n(CC(C)C)c2c1/C=C/C(=O)N1CCCC12CCCN(C(=O)OC(C)(C)C)C2` (stereo not shown) [Synthesis Example 660, Tert-butyl (E)-1-(3-(6-(cyclopropylcarbamoyl)-7-hydroxy-4-isobutyl-2-methyl-5-oxo-4,5-dihydropyrazolo[1,5-a]pyrimidin-3-yl)acryloyl)-1,7-diazaspiro[4.5]decane-7-carboxylate], the IC50 was determined as 3.97 nM.
Consider `CC(C)(C)Cn1c(=O)c(C(=O)NC2CC2)c(O)n2nc(N3CC[C@@H](N)C3)cc12` [Synthesis Example 341, (R)-2-(3-Aminopyrrolidin-1-yl)-N-cyclopropyl-7-hydroxy-4-neopentyl-5-oxo-4,5-dihydropyrazolo[1,5-a]pyrimidine-6-carboxamide], for which the IC50 turned out to be 2.6 nM.
With `CC(C)Cn1c(=O)c(C(=O)NC2CC2)c(O)n2ncc(/C=C/C(=O)N3[C@H](C)CC[C@@H]3C)c12` [compound 592, N-Cyclopropyl-3-((E)-3-(cis-2,5-dimethylpyrrolidin-1-yl)-3-oxoprop-1-en-1-yl)-7-hydroxy-4-isobutyl-5-oxo-4,5-dihydropyrazolo[1,5-a]pyrimidine-6-carboxamide], the IC50 is 1.46 nM.
Take `Cc1nn2c(O)c(C(=O)NC3CC3)c(=O)n(CC(C)C)c2c1/C=C/C(=O)N1CCCC12CCN(C(=O)OC(C)(C)C)CC2` [Synthesis Example 661, Tert-butyl (E)-1-(3-(6-(cyclopropylcarbamoyl)-7-hydroxy-4-isobutyl-2-methyl-5-oxo-4,5-dihydropyrazolo[1,5-a]pyrimidin-3-yl)acryloyl)-1,8-diazaspiro[4.5]decane-8-carboxylate]: the IC50 is 2.48 nM.
Regarding `CC(C)(C)Cn1c(=O)c(C(=O)NC2CC2)c(O)n2nc(-c3c[nH]nc3C(N)=O)cc12` [Synthesis Example 312, 2-(3-Carbamoyl-1H-pyrazol-4-yl)-N-cyclopropyl-7-hydroxy-4-neopentyl-5-oxo-4,5-dihydropyrazolo[1,5-a]pyrimidine-6-carboxamide], the IC50 turned out to be 1.3 nM.
On the same count and under the same terms, then `NC(=O)c1cc2n(CC3CCC(F)(F)CC3)c(=O)c(C(=O)NC3CC3)c(O)n2n1` [Synthesis Example 276, N6-Cyclopropyl-4-((4,4-difluorocyclohexyl)methyl)-7-hydroxy-5-oxo-4,5-dihydropyrazolo[1,5-a]pyrimidine-2,6-dicarboxamide], with 0.68 nM; and `CC[C@@H]1CCCN1C(=O)/C=C/c1c(C)nn2c(O)c(C(=O)NC3CC3)c(=O)n(CC(C)C)c12` [compound 610, (R,E)-N-Cyclopropyl-3-(3-(2-ethylpyrrolidin-1-yl)-3-oxoprop-1-en-1-yl)-7-hydroxy-4-isobutyl-2-methyl-5-oxo-4,5-dihydropyrazolo[1,5-a]pyrimidine-6-carboxamide], with 1.64 nM.
Still for that read-out and setting: then `COC[C@@H]1CCCN1C(=O)/C=C/c1c(C)nn2c(O)c(C(=O)NC3CC3)c(=O)n(CC(C)C)c12` [Synthesis Example 613, (S,E)-N-Cyclopropyl-7-hydroxy-4-isobutyl-3-(3-(2-(methoxymethyl)pyrrolidin-1-yl)-3-oxoprop-1-en-1-yl)-2-methyl-5-oxo-4,5-dihydropyrazolo[1,5-a]pyrimidine-6-carboxamide], with 1.04 nM.
The same measure, in the same setting: then `O=C(NC1CC1)c1c(O)n2ncc(/C=C/C(=O)N3C[C@@H]4C[C@H]3CO4)c2n(CC2(F)CC2)c1=O` [Synthesis Example 375], with 0.65 nM; and `CC(C)(C)Cn1c(=O)c(C(=O)NC2CC2)c(O)n2nc3[nH]ccc3c12` [Synthesis Example 395, N-Cyclopropyl-7-hydroxy-4-neopentyl-5-oxo-4,5-dihydro-1H-pyrrolo[2′,3′:3,4]pyrazolo[1,5-a]pyrimidine-6-carboxamide], with 0.89 nM.

Still in this test, the particulars now being: sepiapterin absorbance, Table 41, read-out: concentration at 50% inhibition of human SPR (IC50).
For the compound `Cc1nn2c(O)c(C(=O)NC3CC3)c(=O)n(CC(C)C)c2c1/C=C/C(=O)N1CCN(C2CC(F)(F)C2)C[C@H]1C` [Synthesis Example 697, (R,E)-N-Cyclopropyl-3-(3-(4-(3,3-difluorocyclobutyl)-2-methylpiperazin-1-yl)-3-oxoprop-1-en-1-yl)-7-hydroxy-4-isobutyl-2-methyl-5-oxo-4,5-dihydropyrazolo[1,5-a]pyrimidine-6-carboxamide], the IC50 came out at 1.22 nM.
